Each structure is given as a SMILES string. Calls of active or inactive are those of the source. Cut-off read from the data, not from the text of the source: actives have a measured IC50 and inactives only a lower limit.

The IC50 is the concentration at which inhibition is half-maximal.

Sequence of Envelope glycoprotein gp160 (Q6QLK5 whole entry, the tested form may be a part): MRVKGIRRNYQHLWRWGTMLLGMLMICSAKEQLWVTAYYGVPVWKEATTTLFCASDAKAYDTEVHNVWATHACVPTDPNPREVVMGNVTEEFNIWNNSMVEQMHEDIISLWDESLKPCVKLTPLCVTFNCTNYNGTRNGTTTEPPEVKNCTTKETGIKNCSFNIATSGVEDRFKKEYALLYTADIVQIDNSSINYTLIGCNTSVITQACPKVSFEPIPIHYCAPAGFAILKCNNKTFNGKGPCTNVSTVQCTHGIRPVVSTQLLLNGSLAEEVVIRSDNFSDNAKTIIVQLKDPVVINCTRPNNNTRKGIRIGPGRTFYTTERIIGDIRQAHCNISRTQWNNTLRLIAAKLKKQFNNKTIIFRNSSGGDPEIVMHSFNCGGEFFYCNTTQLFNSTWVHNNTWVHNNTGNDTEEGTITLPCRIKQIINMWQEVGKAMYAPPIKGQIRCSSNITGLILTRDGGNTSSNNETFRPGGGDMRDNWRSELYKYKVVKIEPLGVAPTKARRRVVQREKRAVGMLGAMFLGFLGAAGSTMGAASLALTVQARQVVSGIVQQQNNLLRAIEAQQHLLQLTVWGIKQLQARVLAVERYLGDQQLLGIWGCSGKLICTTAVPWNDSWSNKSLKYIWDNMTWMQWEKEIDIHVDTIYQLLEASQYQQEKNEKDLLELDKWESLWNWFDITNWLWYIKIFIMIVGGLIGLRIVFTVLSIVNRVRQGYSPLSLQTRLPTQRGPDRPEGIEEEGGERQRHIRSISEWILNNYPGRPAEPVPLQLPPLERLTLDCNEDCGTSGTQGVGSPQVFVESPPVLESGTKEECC

The assay concerns the target Envelope glycoprotein gp160 (Human immunodeficiency virus 1, UniProt Q6QLK5). The assay can be described thus: cell-free HIV fusion peptide-binding blockers – biochemical, uHTS, fluorescence dequenching, […] (AID 1986).
`O=C(O)c1cccc(NC(=S)N/N=C/c2ccccc2OCc2cccc(Br)c2)c1`: the IC50 is 13.2 µM (active).
On to `O=C1NN(c2ccc(Cl)c(Cl)c2)C(=O)/C1=C/c1ccc(-c2ccccc2C(=O)O)o1`, for which the IC50 was 15.7 µM (active).
The result for `Cc1ccc(-n2cccc2/C=C2/C(=N)N3C(=NC2=O)SN=C3S(C)(=O)=O)cc1Cl` reads 6.32 µM (active).
The result for `COc1cc(/C=C2\C(=N)N3N=C(S(C)(=O)=O)SC3=NC2=O)cc(OC)c1OCCOc1ccccc1C` reads 14.6 µM (active).
